Laboratory results published in patent US20260232767A1, “INTERLEUKIN-23 RECEPTOR ANTAGONIST PEPTIDES FOR USE IN THE TREATMENT OF PSORIASIS” (Janssen Pharmaceutica NV, priority 2023, published 2026).

Tests used:
[1] = tested on: subjects with moderate-to-severe plaque psoriasis; experiment: Treatment disposition, Example 2; assay type: in vivo, human
[2] = tested on: subjects with moderate-to-severe plaque psoriasis; experiment: Safety, adverse events, Example 1; conditions: 16-week study
Experimental: Adverse events were reported and followed by the investigator. Any clinically relevant changes occurring during the study were recorded. Any clinically significant abnormalities persisting at the end of the study/early withdrawal were followed by the investigator until resolution or until a clinically stable condition was reached if possible. The evaluations of safety and tolerability include: physical examinations, vital signs, electrocardiograms, clinical safety laboratory assessments, review of concomitant medication, pregnancy testing, suicidal ideation evaluation via the Columbia—Suicide Severity Rating Scale, and tuberculosis evaluation.
Safety was assessed among all randomized and treated participants who received at least 1 dose of study agent (partial or complete) according to the assigned treatment received during the study. This is also referred to as the safety analysis set.

IL-17A = experiment: Serum IL-17A immunoassay; assay type: in vivo, human; conditions: all treatment groups relative to placebo
Experimental: To evaluate psoriasis relevant systemic biomarkers (Beta-defensin 2 (BD-2), IL-17A, IL-17F, and IL-22), protein concentrations were measured in serum using validated immunoassays. The IL-17A (Catalog #03-0159-00) and IL-17F (Catalog #03-0164-00) assays used are commercially available SMC™-based high sensitivity immunoassays produced by the EMD Millipore Corporation. The manufacturer's protocols were followed and analyzed on the Erenna® instrument platform except for the use of 11 μL Elution Buffer B. While the IL-22 assay is also based on the SMC™ platform and run on the Erenna instrument, the assay was developed internally as a coated plate-based assay. The development and optimization of the BD-2 assay was done on the Meso Scale Discovery on the electrochemiluminescence-based platform, a division of Meso Scale Diagnostics LLC (MSD). For all assays, concentration adjustments were made to values measuring below empirically defined LLOQ or empirically defined ULOQ values. Assay QC verified performance of generated standard curves (average concentration recovery & CV of technical replicates) and control samples (inter-assay plate agreement (CV)).
Serum levels of psoriasis disease biomarkers BD-2, IL-22, IL-17A, and IL-17F relative to baseline were analyzed in patients who received placebo or the compound of Formula (I) and compared to clinical response. […]

[3] = 25 mg BID, Week 16 to Week 52, N=40
[4] = 25 mg BID, through Week 52, N=41
[5] = 25 mg QD, Week 16 to Week 52, N=35
[6] = 25 mg QD, through Week 52, N=43
[7] = 50 mg QD, through Week 52, N=43
[8] = 100 mg BID, through Week 52, N=42
[9] = 100 mg QD, Week 16 to Week 52, N=40
[10] = 100 mg QD, through Week 52, N=43
[11] = Combined, Week 16 to Week 52, N=227
[12] = Combined, through Week 52, N=247

CC(=O)NCCCC[C@@H]1NC(=O)[C@H](Cc2c[nH]c3c(C)cccc23)NC(=O)[C@H]([C@@H](C)O)NC(=O)[C@H](CC(N)=O)NC(=O)[C@@H](NC(C)=O)C(C)(C)SSC(C)(C)[C@@H](C(=O)N[C@@H](Cc2ccc(OCCN)cc2)C(=O)N[C@@H](Cc2ccc3ccccc3c2)C(=O)NC2(C(=O)N[C@@H](CCC(=O)O)C(=O)N[C@@H](CC(N)=O)C(=O)N[C@@H](Cc3cccnc3)C(=O)N(C)CC(N)=O)CCOCC2)NC1=O [IL-23 receptor antagonist peptide, Ac-[Pen]*-N-T-[W(7-Me)]-[Lys(Ac)]-[Pen]*-Phe[4-(2-aminoethoxy)]-[2-Nal]-[THP]-E-N-[3-Pal]-Sarc-NH2 (*[Pen]-[Pen]* formdisulfidebond)]
Discontinued: Adverse Event, % [1, 3]: (2.5%) | Discontinued: Other Adverse Event, % [1, 3]: (2.5%) | Discontinued: Adverse Event, % [1, 4]: (2.4%) | Discontinued: Other Adverse Event, % [1, 4]: (2.4%) | Discontinued: Adverse Event, % [1, 5]: (2.9%) | Discontinued: Other Adverse Event, % [1, 5]: (2.9%) | Discontinued: Adverse Event, % [1, 6]: (7.0%) | Discontinued: Other Adverse Event, % [1, 6]: (7.0%) | Discontinued: Adverse Event, % [1, 7]: (4.7%) | Discontinued: Other Adverse Event, % [1, 7]: (4.7%) | Discontinued: Adverse Event, % [1, 8]: (2.4%) | Discontinued: Other Adverse Event, % [1, 8]: (2.4%) | Discontinued: Adverse Event, % [1, 9]: (2.5%) | Discontinued: Other Adverse Event, % [1, 9]: (2.5%) | Discontinued: Adverse Event, % [1, 10]: (4.7%) | Discontinued: Other Adverse Event, % [1, 10]: (4.7%) | Discontinued: Adverse Event, % [1, 11]: (1.3%) | Discontinued: Other Adverse Event, % [1, 11]: (1.3%) | Discontinued: Adverse Event, % [1, 12]: (3.6%) | Discontinued: Other Adverse Event, % [1, 12]: (3.6%) | COVID-19, subjects ([2]; 25 mg BID): (19.5%) | Diarrhea, subjects ([2]; 25 mg BID): (4.9%) | Discontinued study agent because of adverse events, subjects ([2]; 25 mg BID): (2.3%) | Gastrointestinal disorders, subjects ([2]; 25 mg BID): (9.8%) | Headache, subjects ([2]; 25 mg BID): (2.4%) | Infections and infestations, subjects ([2]; 25 mg BID): (34.1%) | Nasopharyngitis, subjects ([2]; 25 mg BID): (7.3%) | Nervous system disorders, subjects ([2]; 25 mg BID): (4.9%) | Respiratory, thoracic and mediastinal disorders, subjects ([2]; 25 mg BID): 0 | Subjects with 1 or more Adverse events ([2]; 25 mg BID): (48.8%) | Upper respiratory tract infection, subjects ([2]; 25 mg BID): 0 | COVID-19, subjects ([2]; 25 mg QD): (11.6%) | Diarrhea, subjects ([2]; 25 mg QD): (4.7%) | Discontinued study agent because of adverse events, subjects ([2]; 25 mg QD): (7.0%) | Gastrointestinal disorders, subjects ([2]; 25 mg QD): (7.0%) | Headache, subjects ([2]; 25 mg QD): 0 | Infections and infestations, subjects ([2]; 25 mg QD): (34.9%) | Nasopharyngitis, subjects ([2]; 25 mg QD): (2.3%) | Nervous system disorders, subjects ([2]; 25 mg QD): 0 | Respiratory, thoracic and mediastinal disorders, subjects ([2]; 25 mg QD): (2.3%) | Subjects with 1 or more Adverse events ([2]; 25 mg QD): (46.5%) | Upper respiratory tract infection, subjects ([2]; 25 mg QD): (7.0%) | COVID-19, subjects ([2]; 50 mg QD): (7.0%) | Diarrhea, subjects ([2]; 50 mg QD): (9.3%) | Discontinued study agent because of adverse events, subjects ([2]; 50 mg QD): (2.3%) | Gastrointestinal disorders, subjects ([2]; 50 mg QD): (14.0%) | Headache, subjects ([2]; 50 mg QD): (2.3%) | Infections and infestations, subjects ([2]; 50 mg QD): (39.5%) | Nasopharyngitis, subjects ([2]; 50 mg QD): (18.6%) | Nervous system disorders, subjects ([2]; 50 mg QD): (7.0%) | Respiratory, thoracic and mediastinal disorders, subjects ([2]; 50 mg QD): (2.3%) | Subjects with 1 or more Adverse events ([2]; 50 mg QD): (60.5%) | Upper respiratory tract infection, subjects ([2]; 50 mg QD): 0 | COVID-19, subjects ([2]; 100 mg BID): (9.5%) | Diarrhea, subjects ([2]; 100 mg BID): (2.4%) | Discontinued study agent because of adverse events, subjects ([2]; 100 mg BID): 0 | Gastrointestinal disorders, subjects ([2]; 100 mg BID): (16.7%) | Headache, subjects ([2]; 100 mg BID): (2.4%) | Infections and infestations, subjects ([2]; 100 mg BID): (26.2%) | Nasopharyngitis, subjects ([2]; 100 mg BID): (4.8%) | Nervous system disorders, subjects ([2]; 100 mg BID): (4.8%) | Respiratory, thoracic and mediastinal disorders, subjects ([2]; 100 mg BID): (4.8%) | Subjects with 1 or more Adverse events ([2]; 100 mg BID): (61.9%) | Upper respiratory tract infection, subjects ([2]; 100 mg BID): (4.8%) | COVID-19, subjects ([2]; 100 mg QD): (7.0%) | Diarrhea, subjects ([2]; 100 mg QD): (2.3%) | Discontinued study agent because of adverse events, subjects ([2]; 100 mg QD): 0 | Gastrointestinal disorders, subjects ([2]; 100 mg QD): (9.3%) | Headache, subjects ([2]; 100 mg QD): (7.0%) | Infections and infestations, subjects ([2]; 100 mg QD): (16.3%) | Nasopharyngitis, subjects ([2]; 100 mg QD): (2.3%) | Nervous system disorders, subjects ([2]; 100 mg QD): (7.0%) | Respiratory, thoracic and mediastinal disorders, subjects ([2]; 100 mg QD): (7.0%) | Subjects with 1 or more Adverse events ([2]; 100 mg QD): (44.2%) | Upper respiratory tract infection, subjects ([2]; 100 mg QD): 0 | Deaths, MACE or malignancies [2]: no deaths, MACE or malignancies | COVID-19, subjects ([2]; Combined doses): (10.8%) | Diarrhea, subjects ([2]; Combined doses): (4.7%) | Discontinued study agent because of adverse events, subjects ([2]; Combined doses): (2.3%) | Gastrointestinal disorders, subjects ([2]; Combined doses): (11.3%) | Headache, subjects ([2]; Combined doses): (2.8%) | Infections and infestations, subjects ([2]; Combined doses): (30.2%) | Nasopharyngitis, subjects ([2]; Combined doses): (7.1%) | Nervous system disorders, subjects ([2]; Combined doses): (4.7%) | Respiratory, thoracic and mediastinal disorders, subjects ([2]; Combined doses): (3.3%) | Subjects with 1 or more Adverse events ([2]; Combined doses): (52.4%) | Upper respiratory tract infection, subjects ([2]; Combined doses): (2.4%) | Dose dependence of occurrence of AEs ([2]; across treatment groups): no evidence of dose-dependent increase | Tolerability ([2]; all treatment groups): well-tolerated | IL-17A serum levels (IL-17A): Statistically significant reductions
